Measured values from patent US20070219234A1, “Thienopyridine Derivatives” (priority 2004, published 2007).

Tests used:
ST2 cells = assay: Osteoblast differentiation test (alkaline phosphatase activity); format: cell-based; settings: Mus musculus, ST-2, 96 h; at 0.03 μg/mL; culturing for four days; control group (0.1% DMSO) = 100%; read-out: alkaline phosphatase activity increase rate
Experimental: ST2 cells (available from Institute of Physical and Chemical Research) which are stroma cells derived from mouse marrow were used. In this test, α-MEM medium (available from GIBCO BRL Cat. No. 10370-021) with which 10% (v/v) inactivated fetal bovine serum (available from Hyclone Company, FBS) and 1% (v/v) Penicillin-Streptomycin, Liquid (available from GIBCO BRL Cat. No. 15140-122) are mixed (hereinbelow abbreviated as 10% -FBS-αMEM) was used. Every culture in this test was conducted in a CO2 incubator (37° C., 95% humidity, 5% CO2).
The cells mentioned above were harvested with 2 mL of 0.25% trypsin solution (available from GIBCO BRL Cat. No. 15050-065) and after they were dispersed by adding 10 mL of 10% -FBS-αMEM, the cells were collected by centrifugal separation (25° C., 800 rpm, 5 minutes). A cell suspension containing 40,000 cells/mL was prepared from the collected cells using 10% -FBS-αMEM.
The cell suspension was dispensed to the wells of a 96 well microplate (Falcon company) in an amount of 100 μL per well so as to achieve 4,000 cells/well and cultured for 24 hours. Compounds were dispensed to the wells in final concentrations of 0.01, 0.03, 0.1, 0.3 μg/ml except the following control group. DMSO was dispensed to the wells of the control group in a final concentration of 0.1% (v/v). Alkaline phosphatase (ALP) activity was measured for each group after culturing for four days.
The measurement of ALP activity was performed as follows. That is, after the whole medium was removed from each well of the culturing plate, each well was washed twice by dispensing and removing 100 μL of Dulbecco's phosphate buffer (available from GIBCO BRL Cat. No. 14190-144). Cell lysing solution containing 10 mM MgCl2 and 2%(v/v) TritonX-100 (Sigma company) was prepared and 50 μL/well of the cell lysing solution was dispensed and the mixture was stirred at room temperature for five minutes. An ALP substrate solution containing 50 mM of diethanolamine (Wako Pure Chemical Industries, Ltd. Cat. No. 099-03112) and 20 mM of […] (Wako Pure Chemical Industries, Ltd. Cat. No. 147-02343) was prepared and 50 μL/well of the ALP substrate solution was dispensed and after allowing to stand at room temperature for 10 minutes, absorbance was measured using a microplate reader (Bio-rad company). Alkaline phosphatase activity increase rate (%) in the group blended with test compounds was calculated assuming the observed value of the control group of each plate to be 100% and evaluated as the osteoblast differentiation promoting activity.

[1] = system: cells from femurs and tibias of ICR mice; assay: Osteoclast formation suppression test (TRAP activity); format: cell-based, mouse; settings: 20 nM active form vitamin D3; compounds 0.01-0.3 μg/ml; culturing for five days
Experimental: 18 day-old ICR mice were purchased from Japan SLC, Inc. and used in the following experiments. The mice were sacrificed by cervical dislocation and the right and left femurs and tibias were extracted. After the tissue around the extracted femurs and tibias was removed, they were finely minced with scissors. 10 mL of 15%-FBS-αMEM was added to the minced femurs and tibias and the supernatant was collected after agitation for one minute and filtering with a cell strainer (Becton Dickinson company). A cell suspension containing 500,000 cells/mL was prepared with 15%-FBS-αMEM. The cell suspension was dispensed to the wells of a 96 well microplate (Falcon company) in an amount of 100 μL per well so as to achieve 50,000 cells/well and cultured for 24 hours. Active form vitamin D3 (Sigma company, Cat.No.D1530) was dispensed to the wells in final concentrations of 20 nM. Compounds were dispensed to the wells in final concentrations of 0.01, 0.03, 0.1, 0.3 μg/ml except the following control group. DMSO was dispensed to the wells of the control group in a final concentration of 0.1% (v/v). Tartrate-resistant acid phosphatase (TRAP) activity was measured for each group after culturing for five days.
The measurement of TRAP activity was performed as follows. That is, after the whole medium was removed from each well of the culturing plate, each well was washed twice by dispensing and removing 100 μL of Dulbecco's phosphate buffer (available from GIBCO BRL Cat. No. 14190-144). After retaining with a mixture of acetone-ethanol (1:1) for one minute, the retention liquid was removed and the wells were stained at 37° C. with Leukocyte acid phosphatase kit (Sigma company, Cat. No. 387-A) for 30 minutes. The staining solution was removed, then 100 μL of 10% sodium dodecylsulfate (Wako Pure Chemical Industries, Ltd. Cat. No. 191-07145) was dispensed and the mixture was stirred for five minutes, and then absorbance was measured using a microplate reader (Bio-rad company). TRAP activity decrease rate (%) in the group blended with test compounds was calculated assuming the observed value of the control group of each plate to be 100% and evaluated as the osteoclast formation suppression activity.

SMILES | melting point | activity at 0.03 µg/mL (ST2 cells) [%] | osteoclast formation suppression effect (TRAP activity decrease rate) [1]
COc1ccc(N2CCCN(c3ccnc4sc(C(N)=O)c(N)c34)CC2)cc1 [Example 58, 3-amino-4-[4-(4-methoxyphenyl)-1,4-diazepan-1-yl]thieno[2,3-b]pyridine-2-carboxamide] | 206 to 208 °C | > 150 | –
NC(=O)c1sc2nccc(N3CCCN(c4ccc([N+](=O)[O-])cc4)CC3)c2c1N [Example 59, 3-amino-4-[4-(4-nitrophenyl)-1,4-diazepan-1-yl]thieno[2,3-b]pyridine-2-carboxamide] | 244 to 248 °C | > 150 | –
CSc1ccc(N2CCCN(c3ccnc4sc(C(N)=O)c(N)c34)CC2)cc1 [Example 64, 3-amino-4-{4-[4-(methylthio)phenyl]-1,4-diazepan-1-yl}thieno[2,3-b]pyridine-2-carboxamide] | 186 to 188 °C | > 150 | –
C[S+]([O-])c1ccc(N2CCCN(c3ccnc4sc(C(N)=O)c(N)c34)CC2)cc1 (stereo not drawn) [Example 66, 3-amino-4-{4-[4-(methylsulfinyl)phenyl]-1,4-diazepan-1-yl}thieno[2,3-b]pyridine-2-carboxamide] | 153 to 157 °C | > 150 | excellent osteoclast formation suppression effect
COc1cccc(N2CCCN(c3ccnc4sc(C(N)=O)c(N)c34)CC2)c1 [Example 68, 3-amino-4-[4-(3-methoxyphenyl)-1,4-diazepan-1-yl]thieno[2,3-b]pyridine-2-carboxamide] | 193 to 195 °C | > 150 | –
NC(=O)c1sc2nccc(N3CCCN(c4ccc5c(c4)OCCO5)CC3)c2c1N [Example 72, 3-amino-4-[4-(2,3-dihydro-1,4-benzodioxin-6-yl)-1,4-diazepan-1-yl]thieno[2,3-b]pyridine-2-carboxamide] | 104 to 107 °C | > 150 | excellent osteoclast formation suppression effect
CN(C)c1ccc(N2CCCN(c3ccnc4sc(C(N)=O)c(N)c34)CC2)cc1 [Example 74, 3-amino-4-{4-[4-(dimethylamino)phenyl]-1,4-diazepan-1-yl}thieno[2,3-b]pyridine-2-carboxamide] | 174 to 176 °C | > 150 | –
CCOc1ccc(N2CCCN(c3ccnc4sc(C(N)=O)c(N)c34)CC2)cc1 [Example 83, 3-amino-4-[4-(4-ethoxyphenyl)-1,4-diazepan-1-yl]thieno[2,3-b]pyridine-2-carboxamide] | 181 to 183 °C | > 150 | excellent osteoclast formation suppression effect
Cc1ccc(N2CCCN(c3ccnc4sc(C(N)=O)c(N)c34)CC2)cc1C [Example 84, 3-amino-4-[4-(3,4-dimethylphenyl)-1,4-diazepan-1-yl]thieno[2,3-b]pyridine-2-carboxamide] | 195 to 197 °C | > 150 | –
CCc1ccc(N2CCCN(c3ccnc4sc(C(N)=O)c(N)c34)CC2)cc1 [Example 93, 3-amino-4-[4-(4-ethylphenyl)-1,4-diazepan-1-yl]thieno[2,3-b]pyridine-2-carboxamide] | 186 to 188 °C | > 150 | –
CC(=O)c1ccc(N2CCCN(c3ccnc4sc(C(N)=O)c(N)c34)CC2)cc1 [Example 94, 4-[4-(4-acetylphenyl)-1,4-diazepan-1-yl]-3-aminothieno [2,3-b]pyridine-2-carboxamide] | 279 to 282 °C (dec.) | > 150 | excellent osteoclast formation suppression effect
COc1ccc(N2CCCN(c3ccnc4sc(C(N)=O)c(N)c34)CC2)cn1 [Example 98, 3-amino-4-[4-(6-methoxypyridin-3-yl)-1,4-diazepan-1-yl]thieno[2,3-b]pyridine-2-carboxamide] | 170 to 172 °C | > 150 | –

More lines, main results first:

melting point | SMILES | activity at 0.03 µg/mL (ST2 cells) [%] | osteoclast formation suppression effect (TRAP activity decrease rate) [1]
224 to 226 °C | NC(=O)c1sc2nccc(N3CC[C@@H]4CCCC[C@@H]4C3)c2c1N (relative stereo) [Example 29, 3-amino-4-(cis-perhydroisoquinolin-2-yl)thieno[2,3-b]pyridine-2-carboxamide] | > 150 | –
191 to 192 °C | NC(=O)c1sc2nccc(N3CCCCC3)c2c1N [Example 14, 3-amino-4-piperidin-1-ylthieno[2,3-b]pyridine-2-carboxamide] | > 150 | –
201 to 204 °C | CC1CCCN(c2ccnc3sc(C(N)=O)c(N)c23)C1 (stereo not drawn) [Example 16, 3-amino-4-(3-methylpiperidin-1-yl)thieno[2,3-b]pyridine-2-carboxamide] | > 150 | –
125 to 130 °C | NC(=O)c1sc2nccc(N3CCCC(CO)C3)c2c1N (stereo not drawn) [Example 17, 3-amino-4-[3-(hydroxymethyl)piperidin-1-yl]thieno[2,3-b]pyridine-2-carboxamide] | > 150 | –
255 to 258 °C | NC(=O)c1sc2nccc(N3CCSCC3)c2c1N [Example 24, 3-amino-4-thiomorpholin-4-ylthieno[2,3-b]pyridine-2-carboxamide] | > 150 | –
209 to 212 °C | Cc1cccc(N2CCCN(c3ccnc4sc(C(N)=O)c(N)c34)CC2)c1 [Example 65, 3-amino-4-[4-(3-toluyl)-1,4-diazepan-1-yl]thieno[2,3-b]pyridine-2-carboxamide] | > 150 | excellent osteoclast formation suppression effect
203 to 205 °C | NC(=O)c1sc2nccc(N3CCCN(c4ccc(F)cc4)CC3)c2c1N [Example 76, 3-amino-4-[4-(4-fluorophenyl)-1,4-diazepan-1-yl]thieno[2,3-b]pyridine-2-carboxamide] | > 150 | –
175 to 176 °C | Cc1ccc(N2CCCN(c3ccnc4sc(C(N)=O)c(N)c34)CC2)cc1 [Example 77, 3-amino-4-[4-(4-methylphenyl)-1,4-diazepan-1-yl]thieno[2,3-b]pyridine-2-carboxamide] | > 150 | –
243 to 245 °C | NC(=O)c1sc2nccc(N3CCCN(c4nccs4)CC3)c2c1N [Example 97, 3-amino-4-[4-(1,3-thiazol-2-yl)-1,4-diazepan-1-yl]thieno[2,3-b]pyridine-2-carboxamide] | > 150 | excellent osteoclast formation suppression effect
